Values quoted from earlier work as cited in patent US20260115234A1, “PRODUCTION & SECRETION OF AUXIN-LIKE MOLECULES IN BACTERIA” (SNIPR Biome ApS, priority 2023, published 2026).
Values after ≈ are worked out from the molar mass of the structure shown.

Assays:
[1] = test system: RFP reporter in strain TG1; conditions: relative fluorescence of plasmids in strain TG1 grown in LB media to saturation
[2] = test system: MCF-7 human breast cancer cells
[3] = test system: A549 human lung cancer cells
[4] = test system: HIV replication in infected H9 lymphocytes

| Compound | Measured Strength (Anderson Score) [1] | further results |
| --- | --- | --- |
| BBa_J23115: Anderson Promoter Collection promoter, Seq ID No: 20 (DNA TTTATAGCTAGCTCAGCCCTTGGTACAATGCTAGC; expressed or natural sequence) | 0.15 |  |
| BBa_J23104: Anderson Promoter Collection promoter, Seq ID No: 9 (DNA TTGACAGCTAGCTCAGTCCTAGGTATTGTGCTAGC; expressed or natural sequence) | 0.72 |  |
| BBa_J23105: Anderson Promoter Collection promoter, Seq ID No: 10 (DNA TTTACGGCTAGCTCAGTCCTAGGTACTATGCTAGC; expressed or natural sequence) | 0.24 |  |
| BBa_J23100: Anderson Promoter Collection constitutive promoter, Seq ID No: 5 (DNA TTGACGGCTAGCTCAGTCCTAGGTACAGTGCTAGC; expressed or natural sequence) | 1 |  |
| BBa_J23116: Anderson Promoter Collection promoter, Seq ID No: 21 (DNA TTGACAGCTAGCTCAGTCCTAGGGACTATGCTAGC; expressed or natural sequence) | 0.16 |  |
| BBa_J23107: Anderson Promoter Collection promoter, Seq ID No: 12 (DNA TTTACGGCTAGCTCAGCCCTAGGTATTATGCTAGC; expressed or natural sequence) | 0.36 |  |
| BBa_J23108: Anderson Promoter Collection promoter, Seq ID No: 13 (DNA CTGACAGCTAGCTCAGTCCTAGGTATAATGCTAGC; expressed or natural sequence) | 0.51 |  |
| O=C(O)c1c[nH]c2ccccc12 [ICA, indole-3-carboxylic acid] |  | EC50 cytotoxicity [2]: 12.9 µg/mL (≈ 80 µM); EC50 cytotoxicity [3]: 4.6 µg/mL (≈ 28.5 µM); IC50 inhibition of HIV replication [4]: 16.4 µg/mL |
| BBa_J23106: Anderson Promoter Collection promoter, Seq ID No: 11 (DNA TTTACGGCTAGCTCAGTCCTAGGTATAGTGCTAGC; expressed or natural sequence) | 0.47 |  |
| BBa_J23114: Anderson Promoter Collection promoter, Seq ID No: 19 (DNA TTTATGGCTAGCTCAGTCCTAGGTACAATGCTAGC; expressed or natural sequence) | 0.1 |  |
| BBa_J23110: Anderson Promoter Collection promoter, Seq ID No: 15 (DNA TTTACGGCTAGCTCAGTCCTAGGTACAATGCTAGC; expressed or natural sequence) | 0.33 |  |
| BBa_J23117: Anderson Promoter Collection promoter, Seq ID No: 22 (DNA TTGACAGCTAGCTCAGTCCTAGGGATTGTGCTAGC; expressed or natural sequence) | 0.06 |  |
| BBa_J23109: Anderson Promoter Collection promoter, Seq ID No: 14 (DNA TTTACAGCTAGCTCAGTCCTAGGGACTGTGCTAGC; expressed or natural sequence) | 0.04 |  |
| BBa_J23112: Anderson Promoter Collection promoter, Seq ID No: 17 (DNA CTGATAGCTAGCTCAGTCCTAGGGATTATGCTAGC; expressed or natural sequence) | 0 |  |
| BBa_J23111: Anderson Promoter Collection promoter, Seq ID No: 16 (DNA TTGACGGCTAGCTCAGTCCTAGGTATAGTGCTAGC; expressed or natural sequence) | 0.58 |  |
| BBa_J23103: Anderson Promoter Collection promoter, Seq ID No: 8 (DNA CTGATAGCTAGCTCAGTCCTAGGGATTATGCTAGC; expressed or natural sequence) | 0.01 |  |
| BBa_J23113: Anderson Promoter Collection promoter, Seq ID No: 18 (DNA CTGATGGCTAGCTCAGTCCTAGGGATTATGCTAGC; expressed or natural sequence) | 0.01 |  |
| BBa_J23101: Anderson Promoter Collection promoter, Seq ID No: 6 (DNA TTTACAGCTAGCTCAGTCCTAGGTATTATGCTAGC; expressed or natural sequence) | 0.7 |  |
| BBa_J23102: Anderson Promoter Collection promoter, Seq ID No: 7 (DNA TTGACAGCTAGCTCAGTCCTAGGTACTGTGCTAGC; expressed or natural sequence) | 0.86 |  |
| BBa_J23118: Anderson Promoter Collection promoter, Seq ID No: 23 (DNA TTGACGGCTAGCTCAGTCCTAGGTATTGTGCTAGC; expressed or natural sequence) | 0.56 |  |
